Assay results reported in patent publication US20110117165A1, “IMPLANTABLE BONE GRAFT MATERIALS” (AFFINERGY, INC., priority 2009, published 2011).
Ends that are not written are not given here. MP = mini-PEG unit; Mpa = O=C(O)CCS

Assays:
GDF-7 (BMP-12) = molecular target: T1, GDF-7 (BMP-12) (Homo sapiens, UniProt Q7Z4P5); test: Binding to GDF-7 (phage display selection substrate)
T1 sequence (Q7Z4P5 322-450): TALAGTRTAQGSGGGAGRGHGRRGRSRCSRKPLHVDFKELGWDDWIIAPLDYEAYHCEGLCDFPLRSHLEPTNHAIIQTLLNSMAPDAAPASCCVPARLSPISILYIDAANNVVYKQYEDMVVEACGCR
Method: (§1) BMP binding peptides SEQ ID NOs: 5-7 were identified as described in US Patent Application Publication No. US20090098175A1. Briefly, the peptides were identified by phage display using immobilized GDF-7 (GDF-7 is BMP-12) as a substrate for the phage library selections. […] The data shown in FIG. 14C were collected similarly to that described above for FIGS. 14A-14B except that the serial dilutions of BMP were 100 nM and 10 nM.

BMP-5 = molecular target: T2, BMP-5 (Homo sapiens, UniProt P22003); test: Binding of immobilized BMP binding peptides to BMP-5 (ELISA); conditions: BMP at 100 nM and 10 nM
T2 sequence (P22003 317-454): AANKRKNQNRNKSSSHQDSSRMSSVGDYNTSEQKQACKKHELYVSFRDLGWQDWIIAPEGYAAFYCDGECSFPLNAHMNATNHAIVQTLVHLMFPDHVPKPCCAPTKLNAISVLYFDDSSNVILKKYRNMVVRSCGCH
Method: (§2) BMP binding peptides SEQ ID NOs:1-4 & 8-10 were identified as described in US Patent Application Publication No. US20060051395A1. Briefly, the peptides were identified by phage display using immobilized BMP-2 as a substrate for the phage library selections. Synthetic peptides SEQ ID NOs: 1-2 were determined to bind to BMP-2 with a relative EC50 value of 0.8 nM and 0.9 nM, respectively (data not shown). Separately, the relative binding affinity of peptides SEQ ID NOs: 1-2 for BMP-2 is shown in FIG. 14A (SEQ ID NO: 1 is denoted as P9 and SEQ ID NO: 2 is denoted as P10). Briefly, the results shown in FIG. 14A were generated by immobilizing biotinylated BMP binding peptides SEQ ID NOs:1 & 2 on streptavidin coated plates. Serial dilutions of 200 nM, 20 nM and 2 nM of BMP-2 were incubated with the immobilized BMP binding peptides for 45 minutes, washed, and bound BMP quantified using ELISA.
as §1

BMP-6 = molecular target: T3, BMP-6 (Homo sapiens, UniProt P22004); test: Binding of immobilized BMP binding peptides to BMP-6 (ELISA); conditions: BMP at 100 nM and 10 nM
T3 sequence (P22004 375-513): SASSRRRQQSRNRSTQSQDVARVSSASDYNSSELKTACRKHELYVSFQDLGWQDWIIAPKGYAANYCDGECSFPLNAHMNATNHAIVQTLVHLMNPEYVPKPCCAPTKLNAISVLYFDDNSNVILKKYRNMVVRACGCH
Method: as §2, §1

BMP-7 = molecular target: T4, BMP-7 (Homo sapiens, UniProt P18075); test: Binding of immobilized BMP binding peptides to BMP-7 (ELISA)
T4 sequence (P18075 293-431): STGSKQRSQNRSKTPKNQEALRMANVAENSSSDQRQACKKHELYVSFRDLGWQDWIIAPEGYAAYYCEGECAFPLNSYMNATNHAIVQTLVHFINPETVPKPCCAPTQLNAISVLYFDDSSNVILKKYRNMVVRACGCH

BMP-2 [1] = molecular target: T5, BMP-2 (Homo sapiens, UniProt P12643); test: Binding of immobilized biotinylated BMP binding peptides to BMP-2 (ELISA); conditions: BMP-2 at 200, 20 and 2 nM, 45 minutes
T5 sequence (P12643 283-396): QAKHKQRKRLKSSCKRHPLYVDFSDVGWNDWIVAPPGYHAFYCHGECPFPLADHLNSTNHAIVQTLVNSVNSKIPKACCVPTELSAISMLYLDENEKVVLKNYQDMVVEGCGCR
Method: as §2

C2C12 cells = test: Alkaline phosphatase secretion by C2C12 cells in response to BMP-2; format: cell-based; conditions: peptide 0-3500 nM, 3 days
Method: In an experiment to test the biological activity of BMP-2 delivered by BMP binding peptide, alkaline phosphatase secreted by C2C12 cells in response to BMP-2 was measured in the presence and absence of BMP binding peptide in solution. C2C12 cells were incubated with BMP-2 (35 nM) and BMP binding peptide at a concentration ranging from 0-3500 nM. The C2C12 cells were incubated with the BMP-2 and BMP binding peptide for 3 days and the alkaline phosphatase assay was performed as described herein above.

BMP-2 [2] = molecular target: T6, BMP-2 (UniProt P12643 283-396); test: relative EC50 of synthetic peptide on BMP-2; format not described, data not shown
T6 construct: also called bone morphogenic protein 2

BMP-2 [3] = molecular target: T6, BMP-2; test: relative EC50 of peptide on BMP-2; format not described, data not shown
BMP-2 [4] = molecular target: T6, BMP-2; test: collagenase digest of sponge after 24 h in plasma, ELISA; data not shown
Method: The BMP binding peptide-modified […] collagen sponges generated in Example 2 were evaluated for ability to bind and retain BMP-2. […] The amount of BMP-2 released into the plasma at each time-point was measured by ELISA (QUANTIKINE, R&D SYSTEMS), and the amount retained on the sponge after 24 h was estimated by Western blot analysis. […] After 24 h, the sponges were digested by collagenase, and the amount of BMP-2 retained on the sponges was quantified by ELISA.

SSGPREIWDSLVGVVNPGWSR [SEQ ID NO: 5]
binding to GDF-7 (GDF-7 (BMP-12)): binding GDF-7
binding to BMP-5 (FIG. 14C) (BMP-5): bind
binding to BMP-6 (FIG. 14C) (BMP-6): bind

SSGGVGGWALFETLRGKEVSR [SEQ ID NO: 6]
binding to GDF-7 (GDF-7 (BMP-12)): binding GDF-7
binding to BMP-5 (FIG. 14C) (BMP-5): bind
binding to BMP-6 (FIG. 14C) (BMP-6): bind

GGGAWEAFSSLSGSRV [SEQ ID NO: 1]
relative binding affinity for BMP-7 (FIG. 14B) (BMP-7): high relative affinity
relative binding affinity for BMP-2 (FIG. 14A) (BMP-2 [1]): high relative affinity
binding to BMP-5 (FIG. 14C) (BMP-5): bind
binding to BMP-6 (FIG. 14C) (BMP-6): bind

SSVAEWALRSWEGMRVGEASR [SEQ ID NO: 7]
binding to GDF-7 (GDF-7 (BMP-12)): binding GDF-7
binding to BMP-5 (FIG. 14C) (BMP-5): bind
binding to BMP-6 (FIG. 14C) (BMP-6): bind

GGALGFPLKGEVVEGWA-NH2 (C-terminus assumed) [SEQ ID NO: 2]
relative binding affinity for BMP-7 (FIG. 14B) (BMP-7): high relative affinity
effect on BMP-2 biological activity (alkaline phosphatase secretion) (C2C12 cells; BMP-2 35 nM): does not interfere with the biological activity of BMP-2
BMP-2 activity of the peptide on its own (C2C12 cells): does not have BMP-2 activity on its own
relative binding affinity for BMP-2 (FIG. 14A) (BMP-2 [1]): high relative affinity
binding to BMP-5 (FIG. 14C) (BMP-5): bind
binding to BMP-6 (FIG. 14C) (BMP-6): bind

B1: BMP binding peptide SEQ ID NO: 1 (peptide)
peptide: GGGAWEAFSSLSGSRV
modifications: also: biotinylated, position not given here
notes: Synthetic peptide found by phage display on immobilized BMP-2; also called P9
EC50 (BMP-2 [2]): 0.8 nM

B2: BMP binding peptide SEQ ID NO: 6 (peptide)
peptide: SSGGVGGWALFETLRGKEVSR
modifications: also: biotinylated for plate assay, position not given here
notes: Found by phage display on immobilized GDF-7; also called P12
EC50 (BMP-2 [3]): 1.8 nM

B3: BMP binding peptide SEQ ID NO: 7 (peptide)
peptide: SSVAEWALRSWEGMRVGEASR
modifications: also: biotinylated for plate assay, position not given here
notes: Found by phage display on immobilized GDF-7; also called P13
EC50 (BMP-2 [3]): 1.1 nM

B4: BMP binding peptide SEQ ID NO: 2 (peptide)
peptide: GGALGFPLKGEVVEGWA
modifications: also: biotinylated, position not given here
notes: Synthetic peptide found by phage display on immobilized BMP-2; also called P10
EC50 (BMP-2 [2]): 0.9 nM

B5: HS-Propionyl-MP-MP-(SEQ ID NO: 2)-amide, covalently attached to collagen (peptide)
peptide: {Mpa-MP-MP}-GGALGFPLKGEVVEGWA-NH2
modifications: also: attached to collagen through a disulfide
notes: also called Peptide1
fold BMP-2 retained against unmodified sponge after 24 h (BMP-2 [4]): > 40 fold

B6: BMP binding peptide SEQ ID NO: 1 containing a free thiol group, covalently attached to HELISTAT collagen (peptide)
peptide: GGGAWEAFSSLSGSRV
modifications: also: free thiol group added, position and spacer not given here, attached to collagen through a disulfide
notes: also called Peptide2; Peptide 2
fold BMP-2 retained against unmodified sponge after 24 h (BMP-2 [4]): > 40 fold

B7: BMP binding peptide SEQ ID NO: 5 (peptide)
peptide: SSGPREIWDSLVGVVNPGWSR
modifications: also: biotinylated, position not given here
notes: Found by phage display on immobilized GDF-7; also called P11
EC50 (BMP-2 [3]): 2 nM
